Entries after “also recorded” stand apart in the source; their conditions may differ.
How the values were obtained:
[1] = test system: Relma, Mgl2, Ym1, Fabp4, Arg1 expression; assay: qPCR of IL-4-associated genes in BMDMs; type: cell-based, mouse
Method: (§1) For all gene expression and flow cytometry experiments described below, day 6 BMDM were plated at 3×10^5 cell/well in 12-well plates. The next day, cells were treated with appropriate compounds (and duration as indicated in figures and below) in DMEM supplemented with 5% FBS, 2 mM L-glutamine, 100 units/mL, 100 μg/mL penicillin/streptomycin, 500 μM of sodium pyruvate and 5% v/v conditioned media containing macrophage colony stimulating factor (M-CSF).
(§2) For flow cytometry experiments involving etomoxir (FIG. 1G, FIG. 2A, FIG. 2D, FIG. 3A, FIG. 3B, FIG. 3G, FIG. 3H): BMDMs were mock-treated (media replacement only) or treated with 20 ng/mL of IL-4±3 μM or 200 μM of etomoxir for 48 hr. When measuring expression of M(IL-4)-associated genes in response to etomoxir (FIG. 1H, FIG. 2B), BMDMs were mock-treated or treated with 20 ng/mL of IL4±etomoxir as indicated for 24 hr.
(§3) For experiments involving respiratory chain inhibitors: BMDMs were mock-treated (media replacement only) or treated with 20 ng/mL of IL4±1.2 μM oligomycin (Oligo), 200 nM rotenone (Rot), 200 nM antimycin A (AntiA), 100 nM piericidin A (PierA), or 5 μM carboxyatractylate (CAT) for either 24 (FIG. 4G, FIG. 4H, FIG. 6G) or 48 hr (FIG. 4F, FIG. 7D). All inhibitors were given as co-treatments simultaneously with IL-4.
RNA was isolated with TRIzol, then cDNA was synthesized with high-capacity cDNA reverse transcription kit. KAPA SYBR FAST qPCR Master Mix kit and a LightCycler 480 were used for quantitative RT-PCR. Fold change related to the control group was calculated using […] with 36b4 as the reference gene.

[2] = test system: M(IL-4) polarization of BMDMs; assay: Flow cytometry of IL-4-associated cell surface markers in BMDMs; type: cell-based, mouse
Method: as §1, §2, §3
For experiments involving CoA supplementation (FIG. 10A, FIG. 10B, FIG. 10C, FIG. 10D, FIG. 10E, FIG. 9C, FIG. 9D): BMDMs were mock-treated (media replacement only) or treated with 20 ng/mL of IL4±etomoxir (concentration indicated in figures)±CoA (concentration indicated in figures) for 48 hr. Etomoxir and CoA were given as co-treatments simultaneously with IL-4.
Prior to FACS analysis, BMDMs were detached using 350 μL of Accutase, followed by two washes with FACS buffer (PBS+1% (v/v) BSA+0.05% (w/v) sodium azide). Anti-mouse CD16/32 antibody was used at a dilution of 1:500, while all other antibodies were used at a dilution of 1:250. All flow cytometry data were captured using BD FACSVerse flow cytometer and analyzed using the FlowJo X 10.0.7r2 software. In all, 2×104 live events were acquired for each sample (gated on DAPIneg). For analysis, CD206+/CD71+ and CD206+/CD301+ populations were gated based on Fluorescence Minus One (FMO) controls.

[3] = test system: HepG2 cells; assay: Palmitate-driven respiration in intact HepG2 cells (Seahorse); type: cell-based
Method: All respirometry studies were conducted in either a Seahorse XF96 or XFe96 Analyzer. All experiments were conducted at 37° C., and at pH 7.4 (intact cells) or 7.2 (permeabilized cells and isolated mitochondria). Calculation of respiratory parameters was made according to standard protocols (Divakaruni, A. S., Paradyse, A., Ferrick, D. A., Murphy, A. N., and Jastroch, M. (2014a) Analysis and interpretation of microplate-based oxygen consumption and pH data. Meth. Enzym 547, 509-54), and all rates were corrected for non-mitochondrial respiration/background signal by subtracting the oxygen consumption rate insensitive to rotenone plus antimycin A.
Palmitate oxidation in intact cells (FIG. 1A, FIG. 1B) was assessed by measuring palmitate-driven respiration that was sensitive to low concentrations of etomoxir (Rogers, G. W., Nadanaciva, S., Swiss, R., Divakaruni, A. S., and Will, Y. (2014) Assessment of fatty acid beta oxidation in cells and isolated mitochondria. Curr. Protoc. Toxicol. 60, 25.3, 1-19). […] Respiration was measured under basal conditions as well as after injection of 2 μM oligomycin, two sequential additions of 1 μM FCCP, followed by 0.2 μM rotenone with 1 μM antimycin A. Etomoxir was added to the assay medium 30 min. prior to measurements of basal respiratory rates.

[4] = test system: BMDMs; details: concentrations as high as 100 μM etomoxir; cited from earlier work
[5] = test system: M(IL-4) polarization; details: cited from earlier work

CCOC(=O)[C@@]1(CCCCCCOc2ccc(Cl)cc2)CO1 [etomoxir]
gene expression of Relma, Mgl2, Ym1, Fabp4, Arg1 ([1]; 3 μM etomoxir, IL-4, 24 hr): no change | Fabp4 and Arg1 expression ([1]; 200 μM etomoxir, IL-4, 24 hr): no change | Relma, Mgl2, Ym1 expression ([1]; 200 μM etomoxir, IL-4, 24 hr): blocked the induction; also recorded: significantly decreased | Fabp4 expression ([1]; etomoxir, IL-4): unresponsive | CD206+/CD71+ expression in WT and Cpt1a-/- macrophages ([2]; 3 μM etomoxir): lack of an effect | expression levels of IL-4-induced CD206, CD71, CD301 ([2]; 3 μM etomoxir, IL-4 20 ng/mL): no effect | CD206+/CD71+ expression in WT and Cpt1a-/- macrophages ([2]; 200 μM etomoxir): robust block | population of CD206+/CD71+ cells ([2]; 200 μM etomoxir, IL-4): strongly reduced | population of CD301+ cells ([2]; 200 μM etomoxir, IL-4): little effect | population of CD206+/CD71+ cells ([2]; 500 μM CoA, etomoxir 3-100 μM): proportionally decreased | concentration at which significant changes in macrophage polarization were observed ([2]; CD206+/CD71+, IL-4): > 100 µM | FCCP-stimulated respiration ([3]; 1 μM etomoxir): largely sensitive | half-maximal inhibitory concentration (EC50) for uncoupler-stimulated respiration ([3]; intact HepG2, albumin-buffered palmitate): sub-micromolar | respiration in BMDMs [4]: lack of significant changes in respiration | blocking M(IL-4) polarization in Cpt2-/- BMDMs vs WT ([5]; 200 μM etomoxir): equally effective | IL-4-associated markers / IL-4 response ([5]; etomoxir 10 μM to 100 μM): unaffected; also recorded: fail to affect
